From the CheMixHub ionic liquid set

Assay: xn = mol fraction of the nth substance listed

CCCCCCCCCCCCCCCC[N+](C)(C)C.[Br-] + O=C[C@H](O)[C@@H](O)[C@H](O)[C@H](O)CO + O
viscosity [mPa·s], 100 kPa
Details	298.15 K	308.15 K	318.15 K
x2 = 0, x1 = 7.21e-06	0.896	0.742	0.617
x2 = 0, x1 = 1.442e-05	0.898	0.744	0.617
x2 = 0, x1 = 2.162e-05	0.9	0.745	0.617
x2 = 0.0008068, x1 = 7.2e-06	0.918	0.76	–
x2 = 0.000976, x1 = 1.44e-05	0.926	–	0.635
x2 = 0.0009851, x1 = 2.16e-05	–	0.768	0.636
x2 = 0.00106, x1 = 7.2e-06	–	–	0.636
x2 = 0.001255, x1 = 2.16e-05	–	0.774	0.641
x2 = 0.001314, x1 = 1.44e-05	–	0.774	–
x2 = 0.001569, x1 = 7.2e-06	0.939	0.777	0.645
x2 = 0.001577, x1 = 2.159e-05	0.946	0.782	0.647
x2 = 0.001582, x1 = 1.439e-05	0.943	–	0.647
x2 = 0.001962, x1 = 7.19e-06	0.949	–	–
x2 = 0.001965, x1 = 2.158e-05	0.957	0.791	0.655
x2 = 0.00197, x1 = 1.439e-05	0.955	–	0.654
x2 = 0.002321, x1 = 7.19e-06	–	0.793	0.659
x2 = 0.00235, x1 = 1.438e-05	–	0.798	–
x2 = 0.002365, x1 = 2.157e-05	0.968	0.8	0.662
x2 = 0.002661, x1 = 1.438e-05	0.974	0.805	0.667
x2 = 0.002693, x1 = 2.157e-05	0.978	0.808	0.669
x2 = 0.0027, x1 = 7.19e-06	0.969	0.802	–

C1CN=C2CCCN2C1 + O=S(=O)([N-]S(=O)(=O)C(F)(F)F)C(F)(F)F.[Li+]
101 kPa, frequency 0 MHz, x1 = 0.8
Details	electrical conductivity [S/m]
338.15 K	0.0385
368.15 K	0.152

101 kPa, x1 = 0.8
Details	viscosity [mPa·s]
338.15 K	236
368.15 K	37.77

CCCC[P+](c1ccccc1)(c1ccccc1)c1ccccc1.[Br-] + O=S=O + OCCO
100 kPa
Details	viscosity [mPa·s]
303.15 K, x2 = 0.01371, x3 = 0.9622	22
313.15 K, x2 = 0.01059, x3 = 0.9653	18.4
323.15 K, x2 = 0.008625, x3 = 0.9672	15.5
333.15 K, x2 = 0.007346, x3 = 0.9684	12.9
343.15 K, x2 = 0.005964, x3 = 0.9698	11.5

CC[NH3+].O=[N+]([O-])[O-] + O=[N+]([O-])[O-].O=[N+]([O-])[O-].[Ca+2] + O
100 kPa
Details	electrical conductivity [S/m]	viscosity [mPa·s]
223 K, x2 = 0.05128, x3 = 0.1778	0.001	–
233 K, x2 = 0.05128, x3 = 0.1778	0.009	–
233 K, x2 = 0.09755, x3 = 0.3019	0.009	–
243 K, x2 = 0.05128, x3 = 0.1778	0.034	–
243 K, x2 = 0.09755, x3 = 0.3019	0.034	–
253 K, x2 = 0.05128, x3 = 0.1778	0.095	–
253 K, x2 = 0.09755, x3 = 0.3019	0.095	–
263 K, x2 = 0.05128, x3 = 0.1778	0.209	–
263 K, x2 = 0.09755, x3 = 0.3019	0.209	–
273 K, x2 = 0.05128, x3 = 0.1778	0.394	–
273 K, x2 = 0.09755, x3 = 0.3019	0.394	–
283 K, x2 = 0.05128, x3 = 0.1778	0.662	–
283 K, x2 = 0.09755, x3 = 0.3019	0.662	–
288.15 K, x2 = 0.05128, x3 = 0.1778	–	131.6
288.15 K, x2 = 0.09755, x3 = 0.3019	–	160.5
293 K, x2 = 0.05128, x3 = 0.1778	1.02	–
293 K, x2 = 0.09755, x3 = 0.3019	1.02	–
293.15 K, x2 = 0.05128, x3 = 0.1778	–	106.7
293.15 K, x2 = 0.09755, x3 = 0.3019	–	127.9
298.15 K, x2 = 0.05128, x3 = 0.1778	–	87.1
298.15 K, x2 = 0.09755, x3 = 0.3019	–	102.8
303 K, x2 = 0.05128, x3 = 0.1778	1.47	–
303 K, x2 = 0.09755, x3 = 0.3019	1.47	–
303.15 K, x2 = 0.05128, x3 = 0.1778	–	71.6
303.15 K, x2 = 0.09755, x3 = 0.3019	–	83.2
308.15 K, x2 = 0.05128, x3 = 0.1778	–	59.2
308.15 K, x2 = 0.09755, x3 = 0.3019	–	67.8
313 K, x2 = 0.05128, x3 = 0.1778	2.01	–
313 K, x2 = 0.09755, x3 = 0.3019	2.01	–
313.15 K, x2 = 0.05128, x3 = 0.1778	–	49.3
313.15 K, x2 = 0.09755, x3 = 0.3019	–	55.59
323 K, x2 = 0.05128, x3 = 0.1778	2.64	–
323 K, x2 = 0.09755, x3 = 0.3019	2.64	–
333 K, x2 = 0.05128, x3 = 0.1778	3.35	–
333 K, x2 = 0.09755, x3 = 0.3019	3.35	–
343 K, x2 = 0.05128, x3 = 0.1778	4.13	–
343 K, x2 = 0.09755, x3 = 0.3019	4.13	–
353 K, x2 = 0.05128, x3 = 0.1778	4.98	–
353 K, x2 = 0.09755, x3 = 0.3019	4.98	–
363 K, x2 = 0.05128, x3 = 0.1778	5.89	–
363 K, x2 = 0.09755, x3 = 0.3019	5.89	–
373 K, x2 = 0.05128, x3 = 0.1778	6.84	–
373 K, x2 = 0.09755, x3 = 0.3019	6.84	–

CCCCCCCCCCCCCCCC[N+](C)(C)C.[Br-] + OC1OC[C@@H](O)[C@H](O)[C@H]1O + O
viscosity [mPa·s], 100 kPa
Details	298.15 K	308.15 K	318.15 K
x1 = 7.21e-06, x2 = 0	0.896	0.742	0.617
x1 = 1.442e-05, x2 = 0	0.898	0.744	0.617
x1 = 2.162e-05, x2 = 0	0.9	0.745	0.617

C[P+](c1ccccc1)(c1ccccc1)c1ccccc1.[Br-] + OCC(O)CO
Details	electrical conductivity [S/m]	viscosity [mPa·s]
298 K, 101.3 kPa, x1 = 0.2	–	352
298.2 K, 101 kPa, x1 = 0.2	–	1894
322.36 K, 101 kPa, x2 = 0.75	–	272
327.54 K, 101 kPa, x2 = 0.75	–	204
328.15 K, 101.3 kPa, x2 = 0.6364	0.09	410

CCCCCCCCCCCCCCCC[n+]1ccccc1.[Cl-] + OCC(O)CO + O
electrical conductivity [S/m], 100 kPa
Details	293.15 K	298.15 K	303.15 K	308.15 K
x1 = 3.75e-06, x2 = 0.01019	0.0022	0.0024	0.0025	0.0029
x1 = 3.92e-06, x2 = 0.02128	0.0022	0.0023	0.0024	0.0032
x1 = 4.1e-06, x2 = 0.03338	0.0019	0.0022	0.0026	0.0032
x1 = 4.29e-06, x2 = 0.04664	0.0019	0.0022	–	0.0032
x1 = 7.51e-06, x2 = 0.01019	0.004	0.0042	0.0046	0.0052
x1 = 7.84e-06, x2 = 0.02128	0.0035	0.0039	0.0043	0.0054
x1 = 8.2e-06, x2 = 0.03338	0.0031	0.0037	0.0043	0.0049
x1 = 8.59e-06, x2 = 0.04664	0.003	0.0036	0.0044	0.0048
x1 = 1.126e-05, x2 = 0.01019	0.0058	–	0.0065	0.0076
x1 = 1.176e-05, x2 = 0.02128	–	0.0054	0.0064	0.0077
x1 = 1.23e-05, x2 = 0.03338	0.0043	0.0052	0.0059	0.0068
x1 = 1.288e-05, x2 = 0.04664	0.004	0.005	0.0058	0.0065
x1 = 1.502e-05, x2 = 0.01019	0.0076	0.0076	0.0085	–
x1 = 1.568e-05, x2 = 0.02128	0.0063	–	0.0084	–
x1 = 1.639e-05, x2 = 0.03338	0.0056	0.0066	0.0077	0.0088
x1 = 1.718e-05, x2 = 0.04664	0.0052	0.0063	0.0072	0.0083
x1 = 1.877e-05, x2 = 0.01019	0.0087	0.0092	–	–
x1 = 1.96e-05, x2 = 0.02128	0.0076	0.0087	–	–
x1 = 2.049e-05, x2 = 0.03338	0.0069	0.0081	0.0093	–
x1 = 2.147e-05, x2 = 0.04664	0.0063	0.0078	0.0086	–
x1 = 2.253e-05, x2 = 0.01019	0.0094	–	–	–
x1 = 2.351e-05, x2 = 0.02128	0.0083	0.0096	–	–
x1 = 2.459e-05, x2 = 0.03338	0.0079	0.0089	–	–
x1 = 2.577e-05, x2 = 0.04664	0.0073	0.0089	0.0097	–
x1 = 2.743e-05, x2 = 0.02128	0.0089	–	–	–
x1 = 2.869e-05, x2 = 0.03338	0.0086	0.0095	–	–
x1 = 3.006e-05, x2 = 0.04664	0.0079	0.0095	–	–
x1 = 3.135e-05, x2 = 0.02128	0.0095	–	–	–
x1 = 3.279e-05, x2 = 0.03338	0.0092	–	–	–
x1 = 3.436e-05, x2 = 0.04664	0.0084	–	–	–
x1 = 3.688e-05, x2 = 0.03338	0.0098	–	–	–
x1 = 3.865e-05, x2 = 0.04664	0.0089	–	–	–
x1 = 4.295e-05, x2 = 0.04664	0.0094	–	–	–

C[P+](c1ccccc1)(c1ccccc1)c1ccccc1.[Br-] + OCC(O)CO + OCCO
298.2 K, 101 kPa
Details	viscosity [mPa·s]
x1 = 0.2, x2 = 0	121
x1 = 0.2, x2 = 0.4	455
x1 = 0.2, x2 = 0.8	1894

C[N+](C)(C)CCO.O=S(=O)([N-]S(=O)(=O)C(F)(F)F)C(F)(F)F + OCCCCCO
101 kPa
Details	viscosity [mPa·s]
318.15 K, x2 = 0.2149	37.3
323.15 K, x2 = 0	39.3
323.15 K, x2 = 0.2149	31.2
328.15 K, x2 = 0.2149	26.3
333.15 K, x2 = 0.2149	22.5
338.15 K, x2 = 0.4145	16.11
343.15 K, x2 = 0.6847	12.37
